Source: patent US20120252729A1, “PTH-CONTAINING THERAPEUTIC/PROPHYLACTIC AGENT FOR OSTEOPOROSIS, CHARACTERIZED IN THAT PTH IS ADMINISTERED ONCE A WEEK IN A UNIT DOSE OF 100 TO 200 UNITS” (ASAHI KASEI PHARMA CORPORATION, priority 2009, published 2012)

Columns and labels:
[1] = system: patients diagnosed with primary osteoporosis; experiment: Working Example 1: new vertebral fractures by x-ray (method of Genant et al.); format: in vivo, human
Procedure: Both the 5 and 100 unit groups were administered two tablets of a calcium agent (containing 500 mg of precipitated calcium carbonate [200 mg as calcium] per tablet) once a day.
The osteoporosis patients were classified as condition shown in Table 1 based on the bone fracture risk factors present, as in Non-patent Reference 13, and compared. High-risk patients were defined as having all three factors involving age, prevalent vertebral fractures, and bone density or bone atrophy; low-risk patients were defined as other than the above.

[2] = system: high-risk patients diagnosed with primary osteoporosis; experiment: Working Example 2: bone density of lumbar spine and femur by DXA; format: in vivo, human; conditions: 200 units weekly; for Change in lumbar vertebral density (%), median: after 72 W
[3] = high-risk patients, 5 units, after 26 W
[4] = high-risk patients, 5 units, after 52 W
[5] = high-risk patients, 5 units, after 78 W
[6] = high-risk patients, 5 units, after 104 W
[7] = high-risk patients, 5 units, after 130 W
[8] = high-risk patients, 100 units, after 26 W
[9] = high-risk patients, 100 units, after 52 W
[10] = high-risk patients, 100 units, after 78 W
[11] = high-risk patients, 100 units, after 104 W
[12] = high-risk patients, 100 units, after 130 W
[13] = low-risk patients, 5 units, after 26 W
[14] = low-risk patients, 5 units, after 52 W
[15] = low-risk patients, 5 units, after 78 W
[16] = low-risk patients, 5 units, after 104 W
[17] = low-risk patients, 5 units, after 130 W
[18] = low-risk patients, 100 units, after 26 W
[19] = low-risk patients, 100 units, after 52 W
[20] = low-risk patients, 100 units, after 78 W
[21] = low-risk patients, 100 units, after 104 W
[22] = low-risk patients, 100 units, after 130 W

teriparatide acetate
New vertebral fractures every 26 weeks: Incidence (%) [1, 3]: 9.5%
New vertebral fractures every 26 weeks: No. of fractures [1, 3]: 8
New vertebral fractures every 26 weeks: No. with fractures [1, 3]: 6
New vertebral fractures every 26 weeks: Incidence (%) [1, 4]: 11.1%
New vertebral fractures every 26 weeks: No. of fractures [1, 4]: 9
New vertebral fractures every 26 weeks: No. with fractures [1, 4]: 7
New vertebral fractures every 26 weeks: Incidence (%) [1, 5]: 7.0%
New vertebral fractures every 26 weeks: No. of fractures [1, 5]: 4
New vertebral fractures every 26 weeks: No. with fractures [1, 5]: 4
New vertebral fractures every 26 weeks: Incidence (%) [1, 6]: 2.9%
New vertebral fractures every 26 weeks: No. of fractures [1, 6]: 1
New vertebral fractures every 26 weeks: No. with fractures [1, 6]: 1
New vertebral fractures every 26 weeks: No. of fractures [1, 7]: 0
New vertebral fractures every 26 weeks: No. with fractures [1, 7]: 0
New vertebral fractures every 26 weeks: Incidence (%) [1, 8]: 2.0%
New vertebral fractures every 26 weeks: No. of fractures [1, 8]: 1
New vertebral fractures every 26 weeks: No. with fractures [1, 8]: 1
New vertebral fractures every 26 weeks: Incidence (%) [1, 9]: 2.0%
New vertebral fractures every 26 weeks: No. of fractures [1, 9]: 1
New vertebral fractures every 26 weeks: No. with fractures [1, 9]: 1
New vertebral fractures every 26 weeks: Incidence (%) [1, 10]: 2.2%
New vertebral fractures every 26 weeks: No. of fractures [1, 10]: 1
New vertebral fractures every 26 weeks: No. with fractures [1, 10]: 1
New vertebral fractures every 26 weeks: No. of fractures [1, 11]: 0
New vertebral fractures every 26 weeks: No. with fractures [1, 11]: 0
New vertebral fractures every 26 weeks: No. of fractures [1, 12]: 0
New vertebral fractures every 26 weeks: No. with fractures [1, 12]: 0
New vertebral fractures every 26 weeks: No. of fractures [1, 13]: 0
New vertebral fractures every 26 weeks: No. with fractures [1, 13]: 0
New vertebral fractures every 26 weeks: Incidence (%) [1, 14]: 4.8%
New vertebral fractures every 26 weeks: No. of fractures [1, 14]: 1
New vertebral fractures every 26 weeks: No. with fractures [1, 14]: 1
New vertebral fractures every 26 weeks: No. of fractures [1, 15]: 0
New vertebral fractures every 26 weeks: No. with fractures [1, 15]: 0
New vertebral fractures every 26 weeks: No. of fractures [1, 16]: 0
New vertebral fractures every 26 weeks: No. with fractures [1, 16]: 0
New vertebral fractures every 26 weeks: No. of fractures [1, 17]: 0
New vertebral fractures every 26 weeks: No. with fractures [1, 17]: 0
New vertebral fractures every 26 weeks: Incidence (%) [1, 18]: 8.3%
New vertebral fractures every 26 weeks: No. of fractures [1, 18]: 2
New vertebral fractures every 26 weeks: No. with fractures [1, 18]: 1
New vertebral fractures every 26 weeks: No. of fractures [1, 19]: 0
New vertebral fractures every 26 weeks: No. with fractures [1, 19]: 0
New vertebral fractures every 26 weeks: No. of fractures [1, 20]: 0
New vertebral fractures every 26 weeks: No. with fractures [1, 20]: 0
New vertebral fractures every 26 weeks: No. of fractures [1, 21]: 0
New vertebral fractures every 26 weeks: No. with fractures [1, 21]: 0
New vertebral fractures every 26 weeks: No. of fractures [1, 22]: 0
New vertebral fractures every 26 weeks: No. with fractures [1, 22]: 0
Change in lumbar vertebral density (%), median ([2]; mild impairment (≧50-<80)): 6.6%
Change in lumbar vertebral density (%), median ([2]; normal (≧80)): 8.0%
Change in lumbar vertebral density (%), mean ([2]; normal (≧80), final): 7.5%
